# Test results from patent publication US20220135622A1, “ANTIBACTERIAL PEPTIDES AND METHODS OF USE” (priority 2019, published 2022).
# Where two headings read alike, the source gives them in different places. Square brackets hold non-standard residues; d marks the D form. Peptide text beside a SMILES is read from it. Bip = N[C@@H](Cc1ccc(-c2ccccc2)cc1)C(=O)O; hPhe = N[C@@H](CCc1ccccc1)C(=O)O; Ahp(2) = CCCCC[C@H](N)C(=O)O; hSer = N[C@@H](CCO)C(=O)O; Dap = NC[C@H](N)C(=O)O
# Key:
# E. coli BW25113 = assay type: cell-based, Escherichia coli
# Protocol: (§1) Bacterial growth conditions. LB or Mueller Hinton II cation-adjusted broth (MHB II, BBL 212322) was prepared according to manufacturer's instructions and supplemented with arabinose at 0.02% for overnight growth or at indicated concentrations in the description of the figures. Bacterial cultures were grown at 37° C. When appropriate, media was supplemented with kanamycin (50 μg/mL), carbenicillin (50 μg/mL), chloramphenicol (12.5 or 25 μg/mL), hygromycin (200 μg/mL), and/or gentamicin (10 μg/mL).
# (§2) Peptide sensitivity and MIC assays. Lyophilized peptides (Smartox Biotechnology, CPC Scientific. ABclonal) were solubilized to 10 mM in Tris buffer, pH 8, prior to making a 2-fold dilution series in MHBII cation adjusted broth with highest final assay concentration of 400-800 μM. Bacteria were grown to log phase and added to final OD600˜0.001. The final EDTA concentration was 0.5 mM for E. coli strains and 0.125 mM for USA300. The final volume of 10 μL/well in a 384 well black, clear bottom plate (Corning) was spun <1 min at <250×g and then incubated at 37° C. After 4 h, an equal volume (10 μL) of BacTiter-Glo™ (Promega) was added to each well and luminescence was read after 5 min on an EnVision plate reader (PerkinElmer). To measure the minimal inhibitory concentrations (MICs), bacteria from fresh overnight plates or log phase cultures were diluted with or without EDTA and peptides as described above to final OD600˜0.0002. Plates were incubated at 37° C. for 20 h before measuring OD600 with an EnVision plate reader.
# K. pneumoniae = assay type: cell-based, Klebsiella pneumoniae
# Protocol: as §1, §2
# A. baumannii = assay type: cell-based, Acinetobacter baumannii
# Protocol: as §1, §2
# P. aeruginosa = assay type: cell-based, Pseudomonas aeruginosa
# Protocol: as §1, §2
Compound,MIC E. coli BW25113 (E. coli BW25113; Table 8),MIC K. pneumoniae (K. pneumoniae; Table 8),MIC A. baumannii (A. baumannii; Table 8),MIC R. aeruginosa (P. aeruginosa; Table 8),MIC E. coli BW25113 (E. coli BW25113; BW25113),MIC K. pneumoniae (K. pneumoniae),MIC A. baumannii (A. baumannii),MIC R. aeruginosa (P. aeruginosa)
CSCC[C@H](NC(=O)[C@@H]1CCCN1C(=O)[C@H](CCCNC(=N)N)NC(C)=O)C(=O)N[C@H](C(=O)N[C@@H](C)C(=O)N[C@@H](CCCNC(=N)N)C(=O)N[C@@H](CCCNC(=N)N)C(=O)N[C@@H](Cc1ccc(-c2ccccc2)cc1)C(=O)N[C@@H](CC(C)C)C(=O)N[C@@H](CCC(=O)O)C(=O)N[C@@H](CCCCN)C(=O)N[C@@H](Cc1c[nH]c2ccccc12)C(=O)NCC(=O)N[C@@H](CC(C)C)C(N)=O)[C@@H](C)O [compound 207] (Ac-RPMTARR[Bip]LEKWGL-NH2),100.0 µM,100.0 µM,100.0 µM,100.0 µM,,,,
CSCC[C@H](NC(=O)[C@@H]1CCCN1C(=O)[C@H](Cc1ccc(O)cc1)NC(C)=O)C(=O)N[C@@H](CN)C(=O)N[C@@H](Cc1ccccc1)C(=O)N[C@@H](CCCNC(=N)N)C(=O)N[C@@H](CCCNC(=N)N)C(=O)N[C@@H](Cc1ccc(-c2ccccc2)cc1)C(=O)N[C@@H](CC(C)C)C(=O)N[C@@H](CCC(=O)O)C(=O)N[C@@H](CCCCN)C(=O)N[C@@H](Cc1c[nH]c2ccccc12)C(=O)NCC(=O)N[C@@H](CC(C)C)C(=O)N[C@@H](CC(C)C)C(=O)N[C@@H](CCCNC(=N)N)C(N)=O [compound 90] (Ac-YPM[Dap]FRR[Bip]LEKWGLLR-NH2),200.0 µM,50.0 µM,6.25 µM,25.0 µM,,,,
Ac-RPMTARRWLAKRGL-NH2 [compound 201],,,,,25.0 µM,>400.0 µM,>400.0 µM,>400.0 µM
Ac-YPMTARRFFEKWGLLR-NH2 [compound 94],200.0 µM,>400.0 µM,200.0 µM,>400.0 µM,,,,
Ac-RPMTARRWLEKRGL-NH2 [compound 202],50.0 µM,>400.0 µM,>400.0 µM,>400.0 µM,,,,
CSCC[C@H](NC(=O)[C@@H]1CCCN1C(=O)[C@H](Cc1ccc(O)cc1)NC(C)=O)C(=O)N[C@H](C(=O)N[C@@H](C)C(=O)N[C@@H](CCCNC(=N)N)C(=O)N[C@@H](CCCNC(=N)N)C(=O)N[C@@H](CCc1ccccc1)C(=O)N[C@@H](CC(C)C)C(=O)N[C@@H](CCC(=O)O)C(=O)N[C@@H](CCCCN)C(=O)N[C@@H](Cc1c[nH]c2ccccc12)C(=O)NCC(=O)N[C@@H](CC(C)C)C(=O)N[C@@H](CC(C)C)C(=O)N[C@@H](CCCNC(=N)N)C(N)=O)[C@@H](C)O [compound 84] (Ac-YPMTARR[hPhe]LEKWGLLR-NH2),50.0 µM,50.0 µM,25.0 µM,200.0 µM,,,,
CCCCC[C@H](NC(=O)[C@@H](NC(=O)[C@H](CCSC)NC(=O)[C@@H]1CCCN1C(=O)[C@H](Cc1ccc(O)cc1)NC(C)=O)[C@@H](C)O)C(=O)N[C@@H](CCCNC(=N)N)C(=O)N[C@@H](CCCNC(=N)N)C(=O)N[C@@H](Cc1ccccc1)C(=O)N[C@@H](CC(C)C)C(=O)N[C@@H](CCC(=O)O)C(=O)N[C@@H](CCCCN)C(=O)N[C@@H](Cc1c[nH]c2ccccc12)C(=O)NCC(=O)N[C@@H](CC(C)C)C(=O)N[C@@H](CC(C)C)C(=O)N[C@@H](CCCNC(=N)N)C(N)=O [compound 71] (Ac-YPMT[Ahp(2)]RRFLEKWGLLR-NH2),100 µM,50 µM,<6.25 µM,50 µM,,,,
COC[C@H](NC(=O)[C@@H](NC(=O)[C@H](CCSC)NC(=O)[C@@H]1CCCN1C(=O)[C@H](CCCNC(=N)N)NC(C)=O)[C@@H](C)O)C(=O)N[C@@H](CCCNC(=N)N)C(=O)N[C@@H](CCCNC(=N)N)C(=O)N[C@@H](Cc1c[nH]c2ccccc12)C(=O)N[C@@H](CC(C)C)C(=O)N[C@@H](C)C(=O)N[C@@H](CCCCN)C(=O)N[C@@H](CCCNC(=N)N)C(=O)NCC(=O)N[C@@H](CC(C)C)C(N)=O [compound 215] (Ac-RPMTS(Me)RRWLAKRGL-NH2),,,,,200.0 µM,>400.0 µM,>400.0 µM,>400.0 µM
Ac-YPMTLRRFLEKWGLLR-NH2 [compound 83],200.0 µM,100.0 µM,50.0 µM,200.0 µM,,,,
CC(=O)N[C@@H](Cc1ccc(O)cc1)C(=O)N1CCC[C@H]1C(=O)N[C@@H](CCc1ccccc1)C(=O)N[C@H](C(=O)N[C@@H](C)C(=O)N[C@@H](CCCNC(=N)N)C(=O)N[C@@H](CCCNC(=N)N)C(=O)N[C@@H](Cc1ccccc1)C(=O)N[C@@H](CC(C)C)C(=O)N[C@@H](CCC(=O)O)C(=O)N[C@@H](CCCCN)C(=O)N[C@@H](Cc1c[nH]c2ccccc12)C(=O)NCC(=O)N[C@@H](CC(C)C)C(=O)N[C@@H](CC(C)C)C(=O)N[C@@H](CCCNC(=N)N)C(N)=O)[C@@H](C)O [compound 91] (Ac-YP[hPhe]TARRFLEKWGLLR-NH2),50.0 µM,>400.0 µM,50.0 µM,>400.0 µM,,,,
CSCC[C@H](NC(=O)[C@@H]1CCCN1C(=O)[C@H](Cc1ccc(O)cc1)NC(C)=O)C(=O)N[C@H](C(=O)N[C@@H](C)C(=O)N[C@@H](CCCNC(=N)N)C(=O)N[C@@H](CCCNC(=N)N)C(=O)N[C@@H](Cc1ccc(-c2ccccc2)cc1)C(=O)N[C@@H](CC(C)C)C(=O)N[C@@H](C)C(=O)N[C@@H](CCCCN)C(=O)N[C@@H](Cc1c[nH]c2ccccc12)C(=O)NCC(=O)N[C@@H](CC(C)C)C(=O)N[C@@H](CC(C)C)C(=O)N[C@@H](CCCNC(=N)N)C(N)=O)[C@@H](C)O [compound 88] (Ac-YPMTARR[Bip]LAKWGLLR-NH2),100.0 µM,25.0 µM,12.5 µM,25.0 µM,,,,
CSCC[C@H](NC(=O)[C@@H]1CCCN1C(=O)[C@H](Cc1ccc(O)cc1)NC(C)=O)C(=O)N[C@H](C(=O)N[C@H](C)C(=O)N[C@@H](CCCNC(=N)N)C(=O)N[C@@H](CCCNC(=N)N)C(=O)N[C@@H](Cc1ccccc1)C(=O)N[C@@H](CC(C)C)C(=O)N[C@@H](CCC(=O)O)C(=O)N[C@@H](CCCCN)C(=O)N[C@@H](Cc1c[nH]c2ccccc12)C(=O)NCC(=O)N[C@@H](CC(C)C)C(=O)N[C@@H](CC(C)C)C(=O)N[C@@H](CCCNC(=N)N)C(N)=O)[C@@H](C)O [compound 92] (Ac-YPMT[dA]RRFLEKWGLLR-NH2),200.0 µM,>400.0 µM,200.0 µM,>400.0 µM,,,,
CSCC[C@H](NC(=O)[C@H](CN)NC(=O)[C@H](CCSC)NC(=O)[C@@H]1CCCN1C(=O)[C@H](Cc1ccc(O)cc1)NC(C)=O)C(=O)N[C@@H](CCCNC(=N)N)C(=O)N[C@@H](CCCNC(=N)N)C(=O)N[C@@H](Cc1c[nH]c2ccccc12)C(=O)N[C@@H](CC(C)C)C(=O)N[C@@H](CCC(=O)O)C(=O)N[C@@H](CCCCN)C(=O)N[C@@H](Cc1c[nH]c2ccccc12)C(=O)NCC(=O)N[C@@H](CC(C)C)C(=O)N[C@@H](CC(C)C)C(=O)N[C@@H](CCCNC(=N)N)C(N)=O [compound 89] (Ac-YPM[Dap]MRRWLEKWGLLR-NH2),,,,,25.0 µM,25.0 µM,25.0 µM,100.0 µM
CSCC[C@H](NC(=O)[C@H](CN)NC(=O)[C@H](CCSC)NC(=O)[C@@H]1CCCN1C(=O)[C@H](Cc1ccc(O)cc1)NC(C)=O)C(=O)N[C@@H](CCCNC(=N)N)C(=O)N[C@@H](CCCNC(=N)N)C(=O)N[C@@H](Cc1ccccc1)C(=O)N[C@@H](CC(C)C)C(=O)N[C@@H](CCC(=O)O)C(=O)N[C@@H](CCCCN)C(=O)N[C@@H](Cc1c[nH]c2ccccc12)C(=O)NCC(=O)N[C@@H](CC(C)C)C(=O)N[C@@H](CC(C)C)C(=O)N[C@@H](CCCNC(=N)N)C(N)=O [compound 78] (Ac-YPM[Dap]MRRFLEKWGLLR-NH2),12.5 µM,25.0 µM,25.0 µM,100.0 µM,,,,
CSCC[C@H](NC(=O)[C@@H]1CCCN1C(=O)[C@H](Cc1ccc(O)cc1)NC(C)=O)C(=O)N[C@H](C(=O)N[C@@H](C)C(=O)N[C@@H](CCCNC(=N)N)C(=O)N[C@@H](CCCNC(=N)N)C(=O)N[C@@H](Cc1ccccc1)C(=O)N[C@@H](CC(C)C)C(=O)N[C@@H](CCO)C(=O)N[C@@H](CCCCN)C(=O)N[C@@H](Cc1c[nH]c2ccccc12)C(=O)NCC(=O)N[C@@H](CC(C)C)C(=O)N[C@@H](CC(C)C)C(=O)N[C@@H](CCCNC(=N)N)C(N)=O)[C@@H](C)O [compound 85] (Ac-YPMTARRFL[hSer]KWGLLR-NH2),200.0 µM,200.0 µM,100.0 µM,200.0 µM,,,,
